SMILES | logP
CCc1cc2c(c3c1OC(C)(C)CC3)OC(C)(C)C=C2 | 6.97
CC1(C)C=Cc2cc(C(C)(C)C)c3c(c2O1)CCC(C)(C)O3 | 8.17
CC1(C)C=Cc2cccc(Cl)c2O1 | 4.06
CC1(C)C=Cc2cc(Cl)c3c(c2O1)CCC(C)(C)O3 | 6.14
CCc1c2c(cc3c1OC(C)(C)C=C3)C=CC(C)(C)O2 | 6.89
CC1(C)C=Cc2c3c(c4c(c2O1)CCC(C)(C)O4)OC(C)(C)CC3 | 7.67
CC1(C)C=Cc2c(ccc3c2CCC(C)(C)O3)O1 | 4.01
Cc1c2c(cc3c1OC(C)(C)CC3)C=CC(C)(C)O2 | 6.2
COCCOCCOCCOc1cc2c(c3c1OC(C)(C)CC3)OC(C)(C)CC2 | 4.86
COc1cc2c(cc1OC)SC(C)(C)C=C2 | 3.52
CC1(C)C=Cc2cc(Br)c3c(c2O1)CCC(C)(C)O3 | 6.33
CC1(C)C=Cc2c(c3c(c4c2OC(C)(C)CC4)OC(C)(C)CC3)O1 | 5.8
COc1c2c(cc3c1OC(C)(C)CC3)C=CC(C)(C)O2 | 4.47

Now from value to molecule:

logP | SMILES
3.36 | CCOc1cc2c(cc1OC)C=CC(C)(C)O2
4.79 | COc1cc2c(cc1OCC(F)(F)F)C=CC(C)(C)O2
2.77 | COc1cc2c(cc1OC)OC(C)(C)C=C2
4.49 | COc1cc2c(cc1OCC(F)(F)F)OC(C)(C)C=C2
3.42 | CC1(C)C=Cc2ccccc2O1
4.32 | COc1ccc2c(c1)SC(C)(C)C=C2
3.46 | COc1ccc2c(c1)OC(C)(C)C=C2
4.03 | Cc1ccc2c(c1)OC(C)(C)C=C2
4.89 | CCOc1cc2c(cc1Cl)C=CC(C)(C)O2
5.15 | CCOc1cc2c(cc1Br)C=CC(C)(C)O2
4.55 | CC1(C)C=Cc2ccc(Cl)cc2O1

From the SangsterLogP compilation
